The target in the assay is T1, KRAS G12C 1-169, his-tagged protein, GDP-loaded (Homo sapiens, UniProt P01116, G12C).
T1 construct: KRAS G12C 1-169, his-tagged protein, GDP-loaded
Description: Biochemical assay: covalent binding to KRAS G12C analyzed by mass spectrometry. Note: test concentration or dose not given here.

The mark [1] stands for this setting: compounds 1-47, measured at 24 h.
The mark [2] stands for this setting: compounds 247-342, measured at 30 min.
The mark [3] stands for this setting: compounds 48-246, measured at 2 h.

The structures appear in SMILES notation.

The values that follow come from patent US10111874B2, “Combination therapies for treatment of cancer” (Araxes Pharma LLC, priority 2014, dated 2018).

T1 sequence (P01116 1-169 isoform P01116-2 G12C): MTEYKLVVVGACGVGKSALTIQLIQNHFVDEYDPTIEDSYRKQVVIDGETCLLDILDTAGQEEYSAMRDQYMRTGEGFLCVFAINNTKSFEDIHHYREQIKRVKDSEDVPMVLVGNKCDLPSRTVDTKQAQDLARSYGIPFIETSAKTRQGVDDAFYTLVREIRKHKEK

For the compound `C=CC(=O)N1CC(Nc2ncnc3cc(Cl)c(-c4ccccc4Cl)cc23)C1` [Compound I-30, 1-(3-(7-chloro-6-(2-chlorophenyl)quinazolin-4-ylamino)azetidin-1-yl)prop-2-en-1-one], under setting [1], the Binding % entry is on record as “+ (+indicates binding activity from 5% to 25%)”.
Regarding `Cc1ccc2[nH]ncc2c1-c1c(Cl)cc2c(N3CCN(C(=O)/C=C/CO)CC3)ncnc2c1F` [Compound 315, (E)-1-(4-(6-chloro-8-fluoro-7-(5-methyl-1H-indazol-4-yl)quinazolin-4-yl)piperazin-1-yl)-4-hydroxybut-2-en-1-one], under setting [2], the Binding % entry was “+ (+indicates binding activity from 5% to 25%)”.
In the case of `C=CC(=O)N1CCN(c2cnnc3cc(-c4c(C)ccc5[nH]ncc45)c(C(F)(F)F)cc23)CC1` [Compound 305, 1-(4-(7-(5-methyl-1H-indazol-4-yl)-6-(trifluoromethyl)cinnolin-4-yl)piperazin-1-yl)prop-2-en-1-one], the Binding % entry under setting [2] is “++ (++indicates binding activity greater than 25% and up to 50%)”.
For the compound `C=CC(=O)NC1CCN(c2ncnc3cc(-c4ccccc4)c(Cl)cc23)CC1` [Compound I-89, N-(1-(6-chloro-7-phenylquinazolin-4-yl)piperidin-4-yl)acrylamide], the Binding % entry under setting [3] is recorded as “+ (+indicates binding activity from 5% to 25%)”.
As for `C=CC(=O)N1CC(N2CCN(C(=O)CNc3cc(Br)c(Cl)cc3O)CC2)C1` [II-18, 1-(3-(4-(2-(5-bromo-4-chloro-2-hydroxyphenyl-amino)acetyl)piperazin-1-yl)azetidin-1-yl)prop-2-en-1-one], the Binding % entry (determined at 24 hrs) is “++++ (++++indicates binding activity greater than 50%)”.
`C=CC(=O)N1CCN(c2ncnc3cc(-c4ccccc4Cl)c(Cl)cc23)CC1CC#N` (stereo not shown) [Compound I-109, 2-(1-acryloyl-4-(6-chloro-7-(2-chlorophenyl)quinazolin-4-yl)piperazin-2-yl)acetonitrile]: the Binding % entry under setting [3] is on record as “++++ (++++indicates binding activity greater than 75%)”.
`C=CC(=O)N1CCN(c2ncnc3cc(N4CCNCC4)c(Cl)cc23)CC1` [Compound I-80, 1-(4-(6-chloro-7-(piperazin-1-yl)quinazolin-4-yl)piperazin-1-yl)prop-2-en-1-one]: the Binding % entry under setting [3] is reported as “+ (+indicates binding activity from 5% to 25%)”.
As to `C=CC(=O)N1CCN(c2ncnc3c(F)c(-c4cccc5c(C)n[nH]c45)c(Cl)cc23)CC1` [Compound 324, 1-(4-(6-chloro-8-fluoro-7-(3-methyl-1H-indazol-7-yl)quinazolin-4-yl)piperazin-1-yl)prop-2-en-1-one], the Binding % entry under setting [2] is reported as “+ (+indicates binding activity from 5% to 25%)”.
Take `C=CC(=O)N1CCN(C2CN(C(=O)CNc3cc(Cl)c(Cl)cc3O)C2)CC1` [II-39, 1-(4-(1-(2-(4,5-dichloro-2-hydroxyphenyl-amino)acetyl)azetidin-3-yl)piperazin-1-yl)prop-2-en-1-one]: the Binding % result (determined at 24 hrs) is “+++ (+++indicates binding activity greater than 25% and up to 50%)”.
Turning to `C=CC(=O)N1CC(N2CCN(C(=O)[C@@H](C)Nc3cc(C4CC4)c(Cl)cc3O)CC2)C1` [II-68, (R)-1-(3-(4-(2-(4-chloro-5-cyclopropyl-2-hydroxyphenylamino)-propanoyl)piperazin-1-yl)azetidin-1-yl)prop-2-en-1-one], the Binding % entry (determined at 2 hrs) was “++ (++indicates binding activity greater than 20%)”.
As for `C=CC(=O)N1CC(N2CCN(C(=O)Cn3ccc4ccccc43)CC2)C1` [II-29, 1-(3-(4-(2-(1H-indol-1-yl)acetyl)piperazin-1-yl)azetidin-1-yl)prop-2-en-1-one], the Binding % entry (determined at 24 hrs) is reported as “+ (+indicates binding activity from 5% to 15%)”.
On to `C=CC(=O)N1CC(N2CCN(C(=O)CNc3cc(Cl)c(Cl)cc3O)CC2)C1` [II-1, 1-(3-(4-(2-(4,5-dichloro-2-hydroxyphenyl-amino)acetyl)-piperazin-1-yl)azetidin-1-yl)prop-2-en-1-one], for which the Binding % result (determined at 24 hrs) is “++++ (++++indicates binding activity greater than 50%)”.
As to `CN(C)C/C=C/C(=O)N1CCN(c2ncnc3cc(-c4ccccc4)c(Cl)cc23)CC1` [Compound I-82, (E)-1-(4-(6-chloro-7-phenylquinazolin-4-yl)piperazin-1-yl)-4-(dimethylamino)but-2-en-1-one], the Binding % result under setting [3] is listed as “+ (+indicates binding activity from 5% to 25%)”.
Same read-out and setting: with `C=CC(=O)N1CCN(c2ncnc3c(F)c(-c4c(C)ccc5[nH]ncc45)c(Cl)cc23)CC1` [Compound I-234, 1-(4-(6-chloro-8-fluoro-7-(5-methyl-1H-indazol-4-yl)quinazolin-4-yl)piperazin-1-yl)prop-2-en-1-one] the entry was “++++ (++++indicates binding activity greater than 75%)”.
As to `C=CC(=O)N1CCN(c2ncnc3cc(-c4cccc5ccc(=O)[nH]c45)c(Cl)cc23)CC1` [Compound I-240, 8-(4-(4-acryloylpiperazin-1-yl)-6-chloroquinazolin-7-yl)quinolin-2(1H)-one], the Binding % result under setting [3] was “+++ (+++indicates binding activity greater than 50% and up to 75%)”.
Turning to `C=CC(=O)N1CC(N2CCN(C(=O)/C=C/c3cc(C4CC4)c(Cl)cc3O)CC2)C1` [II-62, (E)-1-(4-(1-Acryloylazetidin-3-yl)piperazin-1-yl)-3-(4-chloro-5-cyclopropyl-2-hydroxyphenyl)prop-2-en-1-one], the Binding % entry (determined at 2 hrs) is on record as “+ (+indicates binding activity from 5% to 20%)”.
For `C=CC(=O)N1CCN(c2ncnc3cc(-c4ccc[nH]c4=O)c(Cl)cc23)CC1` [Compound I-170, 3-(4-(4-acryloylpiperazin-1-yl)-6-chloroquinazolin-7-yl)pyridin-2(1H)-one], the Binding % entry under setting [3] was “+ (+indicates binding activity from 5% to 25%)”.
For the compound `C=CC(=O)N1CCN(c2ncnc3cc(-c4ccccc4-c4cn[nH]c4)c(Cl)cc23)CC1` [Compound I-183, 1-(4-(7-(2-(1H-pyrazol-4-yl)phenyl)-6-chloroquinazolin-4-yl)piperazin-1-yl)prop-2-en-1-one], the Binding % entry under setting [3] is “+++ (+++indicates binding activity greater than 50% and up to 75%)”.
Regarding `C=CC(=O)N1CC(N2CCN(C(=O)C(CC)Nc3cc(Cl)c(Cl)cc3O)CC2)C1` (stereo not shown) [II-49, 1-(4-(1-acryloylazetidin-3-yl)piperazin-1-yl)-2-(4,5-dichloro-2-hydroxyphenyl-amino)butan-1-one], the Binding % result (determined at 24 hrs) is “++++ (++++indicates binding activity greater than 50%)”.
For `C=CC(=O)N1CCN(c2ncnc3cc(Cl)c(-c4ccc(C#N)cc4)cc23)CC1` [Compound I-16, 4-(4-(4-acryloylpiperazin-1-yl)-7-chloroquinazolin-6-yl)benzonitrile], the Binding % result under setting [1] is “++ (++indicates binding activity greater than 25% and up to 50%)”.
For the compound `C=CC(=O)N1CCN(c2ncnc3cc(Cl)c(-c4ccc(Cl)cc4)cc23)CC1CC(N)=O` (stereo not shown) [Compound I-69, 2-(1-acryloyl-4-(7-chloro-6-(4-chlorophenyl)quinazolin-4-yl)piperazin-2-yl)acetamide], the Binding % entry under setting [3] is given as “+ (+indicates binding activity from 5% to 25%)”.
Regarding `C=CC(=O)N1CCN(c2ncnc3c(F)c(-c4c(O)cc(F)cc4F)c(Cl)cc23)CC1` [Compound I-280, 1-(4-(6-chloro-7-(2,4-difluoro-6-hydroxyphenyl)-8-fluoroquinazolin-4-yl)piperazin-1-yl)prop-2-en-1-one], under setting [2], the Binding % entry is “+++ (+++indicates binding activity greater than 50% and up to 75%)”.
